Source: patent publication US11312724B2 (ASCENTAGE PHARMA (SUZHOU) CO., LTD., priority 2021, dated 2022)

Experiments:
[1] = test system: NCI-H358 cell; assay: Cell proliferation assay (Celltiter-Glo), NCI-H358; format: cell-based; settings: Homo sapiens, NCI-H358, 72 h, 3 days
Protocol: (§1) Cell Proliferation Assay:
(§2) NCI-H358 cell and MIA PaCa-2 cell was cultured in RPMI-1640 supplemented with 10% FBS in humidified incubator at 37° C., 5% CO2. To asses the effect of Compounds of the Disclosure on cell proliferation, exponentially growing cells (5000 cells/well) were plated onto 96-well plates. After cell seeding, a representative Compounds of the Disclosure were added to the cell media (in concentrations ranging from 0 to 10 μM, 3/dilution series). After 3 days, 30 μL Celltiter-Glo reagent was added, and the luminescent signal was determined according to supplier's instruction. The dose response curves and IC50 values were generated using Prism.

[2] = test system: MIA PaCa-2 cell; assay: Cell proliferation assay (Celltiter-Glo), MIA PaCa-2; format: cell-based; settings: Homo sapiens, MIA PaCa-2, 72 h, 3 days
Protocol: as §1, §2

[3] = Mouse PK studies, single i.v. and p.o. dose; format: in vivo, CD1 mice; settings: male, CD1, mouse, plasma; for half-life: terminal half-life

Row | Compound | IC50 [1] | IC50 [2] | other results
1 | C=CC(=O)N1CCN(c2nc(OC[C@@H]3CCCN3C)nc3c2CCC2(COC(C)c4c(F)cccc42)C3)C[C@@H]1CC#N (stereo partly drawn) [Cpd. No. 35, 2-((2S)-1-acryloyl-4-(8-fluoro-1-methyl-2′-(((S)-1-methylpyrrolidin-2-yl)methoxy)-5′,8′-dihydro-6′H-spiro[isochromane-4,7′-quinazolin]-4′-yl)piperazin-2-yl)acetonitrile] | 43 nM | 20 nM | 
2 | C=C(F)C(=O)N1CCN(c2nc(OC[C@@H]3CCCN3C)nc3c2CCC2(COC(C)c4c(F)cccc42)C3)C[C@@H]1CC#N (stereo partly drawn) [Cpd. No. 36, 2-((2S)-4-(8-fluoro-1-methyl-2′-(((S)-1-methylpyrrolidin-2-yl)methoxy)-5′,8′-dihydro-6′H-spiro[isochromane-4,7′-quinazolin]-4′-yl)-1-(2-fluoroacryloyl)piperazin-2-yl)acetonitrile] | 260 nM | 160 nM | 
3 | C=CC(=O)N1CCN(c2nc(OC[C@@H]3CCCN3C)nc3c2CCC2(C3)CN(C)C(=O)c3ccccc32)C[C@@H]1CC#N (stereo partly drawn) [Cpd. No. 37, 2-((2S)-1-acryloyl-4-(2-methyl-2′-(((S)-1-methylpyrrolidin-2-yl)methoxy)-1-oxo-2,3,5′,8′-tetrahydro-1H,6′H-spiro[isoquinoline-4,7′-quinazolin]-4′-yl)piperazin-2-yl)acetonitrile] | > 10000 nM | > 10000 nM | 
4 | C=CC(=O)N1CCN(c2nc(OC[C@@H]3CCCN3C)nc3c2CCC2(C3)CC3(CC3)c3c(F)cccc32)C[C@@H]1CC#N (stereo partly drawn) [Cpd. No. 38, 2-((2S)-1-acryloyl-4-(4′-fluoro-2″-(((S)-1-methylpyrrolidin-2-yl)methoxy)-5″,8″-dihydro-2′H,6″H-dispiro[cyclopropane-1,3′-indene-1′,7″-quinazolin]-4″-yl)piperazin-2-yl)acetonitrile] | 290 nM | 93 nM | 
5 | C=CC(=O)N1CCN(c2nc(OC[C@@H]3CCCN3C)nc3c2CCC2(C3)c3cccc(F)c3C3CC32)C[C@@H]1CC#N (stereo partly drawn) [Cpd. No. 39, 2-((2S)-1-acryloyl-4-(2-fluoro-2′-(((S)-1-methylpyrrolidin-2-yl)methoxy)-1a,5′,6a,8′-tetrahydro-1H,6′H-spiro[cyclopropa[a]indene-6,7′-quinazolin]-4′-yl)piperazin-2-yl)acetonitrile] | 670 nM | 370 nM | 
6 | COC/C=C/C(=O)N1CCN(c2nc(OC[C@@H]3CCCN3C)nc3c2CCC2(CCc4ccccc42)C3)C[C@@H]1CC#N (stereo partly drawn) [Cpd. No. 40, 2-((2S)-1-((E)-4-methoxybut-2-enoyl)-4-(2′-(((S)-1-methylpyrrolidin-2-yl)methoxy)-2,3,5′,8′-tetrahydro-6′H-spiro[indene-1,7′-quinazolin]-4′-yl)piperazin-2-yl)acetonitrile] | 560 nM | 440 nM | 
7 | CN1CCC[C@H]1COc1nc2c(c(N3CCN(C(=O)/C=C/CN4CC(F)C4)[C@@H](CC#N)C3)n1)CCC1(CCc3ccccc31)C2 (stereo partly drawn) [Cpd. No. 41, 2-((2S)-1-((E)-4-(3-fluoroazetidin-1-yl)but-2-enoyl)-4-(2′-(((S)-1-methylpyrrolidin-2-yl)methoxy)-2,3,5′,8′-tetrahydro-6′H-spiro[indene-1,7′-quinazolin]-4′-yl)piperazin-2-yl)acetonitrile] | 320 nM | 91 nM | 
8 | C=C(COC)C(=O)N1CCN(c2nc(OC[C@@H]3CCCN3C)nc3c2CCC2(CCc4ccccc42)C3)C[C@@H]1CC#N (stereo partly drawn) [Cpd. No. 42, 2-((2S)-1-(2-(methoxymethyl)acryloyl)-4-(2′-(((S)-1-methylpyrrolidin-2-yl)methoxy)-2,3,5′,8′-tetrahydro-6′H-spiro[indene-1,7′-quinazolin]-4′-yl)piperazin-2-yl)acetonitrile] | 10400 nM | 5800 nM | 
9 | CN1CCC[C@H]1COc1nc2c(c(N3CCN(C(=O)/C=C/CF)[C@@H](CC#N)C3)n1)CCC1(CCc3ccccc31)C2 (stereo partly drawn) [Cpd. No. 43, 2-((2S)-1-((E)-4-fluorobut-2-enoyl)-4-(2′-(((S)-1-methylpyrrolidin-2-yl)methoxy)-2,3,5′,8′-tetrahydro-6′H-spiro[indene-1,7′-quinazolin]-4′-yl)piperazin-2-yl)acetonitrile] | 120 nM | 130 nM | 
10 | C=CC(=O)N1CCN(c2nc(OCC34CCCN3CCC4)nc3c2CC[C@@]2(CCc4c(Cl)cccc42)C3)C[C@@H]1CC#N [Cpd. No. 44, 2-((S)-1-acryloyl-4-((R)-4-chloro-2′-((tetrahydro-1H-pyrrolizin-7a(5H)-yl)methoxy)-2,3,5′,8′-tetrahydro-6′H-spiro[indene-1,7′-quinazolin]-4′-yl)piperazin-2-yl)acetonitrile] | 4.6 nM | 1.5 nM | 
11 | C=C(F)C(=O)N1CCN(c2nc(OCC34CCCN3CCC4)nc3c2CC[C@@]2(CCc4c(Cl)cccc42)C3)C[C@@H]1CC#N [Cpd. No. 45, 2-((S)-4-((R)-4-chloro-2′-((tetrahydro-1H-pyrrolizin-7a(5H)-yl)methoxy)-2,3,5′,8′-tetrahydro-6′H-spiro[indene-1,7′-quinazolin]-4′-yl)-1-(2-fluoroacryloyl)piperazin-2-yl)acetonitrile] | 7.6 nM | 2.8 nM | 
12 | C=CC(=O)N1CCN(c2nc(OCC3CCC4(CC4)N3C)nc3c2CC[C@@]2(CCc4c(Cl)cccc42)C3)C[C@@H]1CC#N (stereo partly drawn) [Cpd. No. 46, 2-((2S)-1-acryloyl-4-((1R)-4-chloro-2′-((4-methyl-4-azaspiro[2.4]heptan-5-yl)methoxy)-2,3,5′,8′-tetrahydro-6′H-spiro[indene-1,7′-quinazolin]-4′-yl)piperazin-2-yl)acetonitrile] | 25 nM | 15 nM | 

More lines, main results first:

Row | IC50 [1] | IC50 [2] | Compound | other results
13 | 61 nM | 60 nM | C=C(F)C(=O)N1CCN(c2nc(OCC34CCCN3CCC4)nc3c2CCC2(CCc4c(C(F)F)cccc42)C3)C[C@@H]1CC#N (stereo partly drawn) [Cpd. No. 49, 2-((2S)-4-(4-(difluoromethyl)-2′-((tetrahydro-1H-pyrrolizin-7a(5H)-yl)methoxy)-2,3,5′,8′-tetrahydro-6′H-spiro[indene-1,7′-quinazolin]-4′-yl)-1-(2-fluoroacryloyl)piperazin-2-yl)acetonitrile] | 
14 | 1.2 nM | 2.9 nM | C=C(F)C(=O)N1CCN(c2nc(OC[C@@]34CCCN3C[C@H](F)C4)nc3c2CC[C@@]2(CCc4c(Cl)cccc42)C3)C[C@@H]1CC#N [Cpd. No. 50, 2-((S)-4-((R)-4-chloro-2′-(((2R,7aS)-2-fluorotetrahydro-1H-pyrrolizin-7a(5H)-yl)methoxy)-2,3,5′,8′-tetrahydro-6′H-spiro[indene-1,7′-quinazolin]-4′-yl)-1-(2-fluoroacryloyl)piperazin-2-yl)acetonitrile] | 
15 | 52 nM | 110 nM | C=C(F)C(=O)N1CCN(c2nc(OCC34CCCN3CC(F)(F)C4)nc3c2CC[C@@]2(CCc4c(Cl)cccc42)C3)C[C@@H]1CC#N (stereo partly drawn) [Cpd. No. 51, 2-((2S)-4-((1R)-4-chloro-2′-((2,2-difluorotetrahydro-1H-pyrrolizin-7a(5H)-yl)methoxy)-2,3,5′,8′-tetrahydro-6′H-spiro[indene-1,7′-quinazolin]-4′-yl)-1-(2-fluoroacryloyl)piperazin-2-yl)acetonitrile] | 
16 | 260 nM | 340 nM | C=C(F)C(=O)N1CCN(c2nc(OCC3CCC4CCCN43)nc3c2CC[C@@]2(CCc4c(Cl)cccc42)C3)C[C@@H]1CC#N (stereo partly drawn) [Cpd. No. 52, 2-((2S)-4-((1R)-4-chloro-2′-((hexahydro-1H-pyrrolizin-3-yl)methoxy)-2,3,5′,8′-tetrahydro-6′H-spiro[indene-1,7′-quinazolin]-4′-yl)-1-(2-fluoroacryloyl)piperazin-2-yl)acetonitrile] | 
17 | 2.5 nM | 1.1 nM | C=CC(=O)N1CCN(c2nc(OC[C@@H]3CCCN3C)nc3c2CC[C@@]2(CCc4c(Cl)cccc42)C3)C[C@@H]1CC#N [Cpd. No. 53, 2-((S)-1-acryloyl-4-((R)-4-chloro-2′-(((S)-1-methylpyrrolidin-2-yl)methoxy)-2,3,5′,8′-tetrahydro-6′H-spiro[indene-1,7′-quinazolin]-4′-yl)piperazin-2-yl)acetonitrile] | AUC(0-inf) ([3]; 2 mg/kg, IV 2 mpk): 1200 ng·h/mL; AUC(0-t) ([3]; 2 mg/kg, IV 2 mpk): 1200 ng·h/mL; MRT inf ([3]; 2 mg/kg, IV 2 mpk): 0.824 h; half-life ([3]; 2 mg/kg, IV 2 mpk): 1.45 h; Vd ([3]; 2 mg/kg, IV 2 mpk, read-out: Vss): 1.37 L/kg; AUC(0-inf) ([3]; 10 mg/kg, PO 10 mpk): 2900 ng·h/mL; AUC(0-t) ([3]; 10 mg/kg, PO 10 mpk): 2650 ng·h/mL; Cmax ([3]; 10 mg/kg, PO 10 mpk): 856 ng/mL; MRT inf ([3]; 10 mg/kg, PO 10 mpk): 3.26 h; half-life ([3]; 10 mg/kg, PO 10 mpk): 2.39 h; bioavailability ([3]; 10 mg/kg, PO 10 mpk vs IV 2 mpk): 48.2%
18 | 28 nM | 16 nM | C=C(F)C(=O)N1CCN(c2nc(OC[C@@H]3CCCN3C)nc3c2CC[C@@]2(CCc4c(Cl)cccc42)C3)C[C@@H]1CC#N [Cpd. No. 54, 2-((S)-4-((R)-4-chloro-2′-(((S)-1-methylpyrrolidin-2-yl)methoxy)-2,3,5′,8′-tetrahydro-6′H-spiro[indene-1,7′-quinazolin]-4′-yl)-1-(2-fluoroacryloyl)piperazin-2-yl)acetonitrile] | 
19 | 2.2 nM | 1.8 nM | C=CC(=O)N1CCN(c2nc(OC[C@@H]3CCCN3C)nc3c2CCC2(COCc4c(F)cccc42)C3)C[C@@H]1CC#N (stereo partly shown) [compound 26] | 
